Consider 29 compounds from US12673944B2, “Compounds having inhibitory activity against glucosylceramide synthase or pharmaceutically acceptable salt thereof, processes for preparing the same, and pharmaceutical compositions comprising the same” (YUHAN CORPORATION, priority 2019, dated 2026).

The target of test [1] is T1, glucosylceramide synthase (GCS) (Homo sapiens, UniProt Q16739).
T1 construct: The obtained supernatant was used; host or cells: A549 cells (lysate supernatant after sonication)
T1 sequence (Q16739 1-394): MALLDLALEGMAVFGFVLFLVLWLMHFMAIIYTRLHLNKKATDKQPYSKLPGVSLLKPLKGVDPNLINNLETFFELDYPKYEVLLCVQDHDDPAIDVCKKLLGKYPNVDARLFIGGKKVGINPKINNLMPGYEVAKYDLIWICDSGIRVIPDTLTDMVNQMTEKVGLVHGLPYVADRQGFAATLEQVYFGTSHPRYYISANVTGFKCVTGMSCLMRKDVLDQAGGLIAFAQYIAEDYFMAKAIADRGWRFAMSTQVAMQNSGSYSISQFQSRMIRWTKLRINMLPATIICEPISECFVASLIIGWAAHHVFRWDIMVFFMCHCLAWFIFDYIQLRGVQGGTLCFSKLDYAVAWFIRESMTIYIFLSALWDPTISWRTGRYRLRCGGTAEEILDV
The test can be described thus: GCS enzyme inhibition assay (A549 cell lysate, NBD C6-ceramide, HPLC fluorescence). The test is classed as biochemical. The note with it: inhibitory activity against GCS, 37° C., 90 minutes. In outline: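 Percent GCS activity was derived from the GlcCer share of Cer plus GlcCer areas, scaled from ibiglustat (0%) to DMSO (100%). Enzyme came from sonicated A549 lysate in 50 mM HEPES pH 7.3; 90 min incubation at 37° C, chloroform/methanol stop and extraction.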

In test [2] the test system is GM1 production in Jurkat cells. The test can be described thus: cells. The test is classed as cell-based. As to conditions: Homo sapiens, Jurkat, 72 h.

One may read the IC50 as the concentration that inhibits the measured activity by half. A low value points to inhibition by little substance. With `CC1(C)COc2cc(-c3cccc4[nH]ncc34)ccc2C1NC(=O)O[C@@H]1CN2CCC1CC2` (stereo partly drawn) [Example 212, (S)-quinuclidin-3-yl (7-(1H-indazol-4-yl)-3,3-dimethylchroman-4-yl)carbamate], the IC50 in test [1] came out at 0.87 nM; in test [2], 2.45 nM.

Take `CC1(C)COc2cc(-c3ccc(Cl)cc3)ccc2C1NC(=O)O[C@@H]1CN2CCC1CC2` (stereo partly drawn) [Example 213, (S)-quinuclidin-3-yl (7-(4-chlorophenyl)-3,3-dimethylchroman-4-yl)carbamate]: the IC50 turned out to be 0.78 nM in test [1] and 0.03 nM in test [2].

For `CC1(C)COc2cc(-c3ccc(F)cc3)ccc2C1NC(=O)O[C@@H]1CN2CCC1CC2` (stereo partly drawn) [Example 214, (S)-quinuclidin-3-yl (7-(4-fluorophenyl)-3,3-dimethylchroman-4-yl)carbamate], the IC50 was determined as 0.55 nM in test [1] and 1.81 nM in test [2].

Regarding `COc1ncc(-c2ccc3c(c2)OCC(C)(C)C3NC(=O)O[C@@H]2CN3CCC2CC3)cc1Cl` (stereo partly drawn) [Example 215, (S)-quinuclidin-3-yl (7-(5-chloro-6-methoxypyridin-3-yl)-3,3-dimethylchroman-4-yl)carbamate], the results for the IC50 in test [1] and in test [2] were 1.57 nM and 2.51 nM, respectively.

Regarding `CN1C(=O)COc2ccc(-c3ccc4c(c3)OCC(C)(C)C4NC(=O)O[C@@H]3CN4CCC3CC4)cc21` (stereo partly drawn) [Example 216, (S)-quinuclidin-3-yl (3,3-dimethyl-7-(4-methyl-3-oxo-3,4-dihydro-2H-benzo[b][1,4]oxazin-6-yl)chroman-4-yl)carbamate], the results for the IC50 in test [1] and in test [2] were 1.51 nM and 8.58 nM, respectively.

Consider `CC1(C)COc2cc(-c3ccc(F)c(F)c3F)ccc2C1NC(=O)O[C@@H]1CN2CCC1CC2` (stereo partly drawn) [Example 217, (S)-quinuclidin-3-yl (3,3-dimethyl-7-(2,3,4-trifluorophenyl)chroman-4-yl)carbamate], for which the IC50 in test [1] worked out at 0.55 nM; in test [2] it was 7.35 nM.

With `CC1(C)COc2cc(-c3ccc(OC(F)F)cc3)ccc2C1NC(=O)O[C@@H]1CN2CCC1CC2` (stereo partly drawn) [Example 218, (S)-quinuclidin-3-yl (7-(4-(difluoromethoxy)phenyl)-3,3-dimethylchroman-4-yl)carbamate], the values for the IC50 in test [1] and in test [2] were 0.4 nM and 2.69 nM, respectively.

With `CC1(C)COc2cc(-c3cccc4ncccc34)ccc2C1NC(=O)O[C@@H]1CN2CCC1CC2` (stereo partly drawn) [Example 219, (S)-quinuclidin-3-yl (3,3-dimethyl-7-(quinolin-5-yl)chroman-4-yl)carbamate], the values for the IC50 in test [1] and in test [2] were 2.26 nM and 7.58 nM, respectively.

As to `CC1(C)COc2cc(-c3ccc4nonc4c3)ccc2C1NC(=O)O[C@@H]1CN2CCC1CC2` (stereo partly drawn) [Example 220, (S)-quinuclidin-3-yl (7-(benzo[c][1,2,5]oxadiazol-5-yl)-3,3-dimethylchroman-4-yl)carbamate], the IC50 in test [1] amounted to 0.8 nM; in test [2] it was 2.42 nM.

On to `Cc1cncc(-c2ccc3c(c2)OCC(C)(C)C3NC(=O)O[C@@H]2CN3CCC2CC3)c1` (stereo partly drawn) [Example 221, (S)-quinuclidin-3-yl (3,3-dimethyl-7-(5-methylpyridin-3-yl)chroman-4-yl)carbamate], for which the values for the IC50 in test [1] and in test [2] were 0.74 nM and 2.8 nM, respectively.

Turning to `CC1(C)COc2cc(-c3cccnc3F)ccc2C1NC(=O)O[C@@H]1CN2CCC1CC2` (stereo partly drawn) [Example 222, (S)-quinuclidin-3-yl (7-(2-fluoropyridin-3-yl)-3,3-dimethylchroman-4-yl)carbamate], the IC50 in test [1] was 0.79 nM; in test [2] it was 6.59 nM.

As for `Cc1ccc(-c2ccc3c(c2)OCC(C)(C)C3NC(=O)O[C@@H]2CN3CCC2CC3)c(Cl)c1` (stereo partly drawn) [Example 223, (S)-quinuclidin-3-yl (7-(2-chloro-4-methylphenyl)-3,3-dimethylchroman-4-yl)carbamate], the IC50 in test [1] was found to be 1.58 nM; in test [2] it was 1.6 nM.

As for `Cc1ccc(Cl)c(-c2ccc3c(c2)OCC(C)(C)C3NC(=O)O[C@@H]2CN3CCC2CC3)c1` (stereo partly drawn) [Example 224, (S)-quinuclidin-3-yl (7-(2-chloro-5-methylphenyl)-3,3-dimethylchroman-4-yl)carbamate], the IC50 in test [1] came to 0.62 nM; in test [2], 0.6 nM.

Turning to `Cc1ccc(-c2ccc3c(c2)OCC(C)(C)C3NC(=O)O[C@@H]2CN3CCC2CC3)c(F)c1` (stereo partly drawn) [Example 225, (S)-quinuclidin-3-yl (7-(2-fluoro-4-methylphenyl)-3,3-dimethylchroman-4-yl)carbamate], the IC50 is 0.45 nM in test [1] and 1.7 nM in test [2].

Take `Cc1ccc(-c2ccc3c(c2)OCC(C)(C)C3NC(=O)O[C@@H]2CN3CCC2CC3)cc1Cl` (stereo partly drawn) [Example 226, (S)-quinuclidin-3-yl (7-(3-chloro-4-methylphenyl)-3,3-dimethylchroman-4-yl)carbamate]: the figures for the concentration for half-maximal inhibition (IC50) in test [1] and in test [2] were 0.71 nM and 1.3 nM, respectively.

With `Cc1cc(F)ccc1-c1ccc2c(c1)OCC(C)(C)C2NC(=O)O[C@@H]1CN2CCC1CC2` (stereo partly drawn) [Example 227, (S)-quinuclidin-3-yl (7-(4-fluoro-2-methylphenyl)-3,3-dimethylchroman-4-yl)carbamate], the figures for the IC50 in test [1] and in test [2] were 0.56 nM and 4.5 nM, respectively.

Take `Cc1ccc(-c2ccc3c(c2)OCC(C)(C)C3NC(=O)O[C@@H]2CN3CCC2CC3)cc1F` (stereo partly drawn) [Example 228, (S)-quinuclidin-3-yl (7-(3-fluoro-4-methylphenyl)-3,3-dimethylchroman-4-yl)carbamate]: the IC50 in test [1] was determined as 0.55 nM; in test [2], 1.3 nM.

`Cc1cc(-c2ccc3c(c2)OCC(C)(C)C3NC(=O)O[C@@H]2CN3CCC2CC3)ccc1F` (stereo partly drawn) [Example 229, (S)-quinuclidin-3-yl (7-(4-fluoro-3-methylphenyl)-3,3-dimethylchroman-4-yl)carbamate]: the IC50 in test [1] was found to be 0.71 nM; in test [2], 2.1 nM.

Take `CC1(C)COc2cc(-c3ccc(Cl)cc3Cl)ccc2C1NC(=O)O[C@@H]1CN2CCC1CC2` (stereo partly drawn) [Example 230, (S)-quinuclidin-3-yl (7-(2,4-dichlorophenyl)-3,3-dimethylchroman-4-yl)carbamate]: the IC50 in test [1] was 0.86 nM; in test [2], 0.8 nM.

As for `CC1(C)COc2cc(-c3ccc(F)cc3Cl)ccc2C1NC(=O)O[C@@H]1CN2CCC1CC2` (stereo partly drawn) [Example 231, (S)-quinuclidin-3-yl (7-(2-chloro-4-fluorophenyl)-3,3-dimethylchroman-4-yl)carbamate], the concentration for half-maximal inhibition (IC50) in test [1] was determined as 0.62 nM; in test [2] it was 1.5 nM.

For the compound `CC1(C)COc2cc(-c3cc(F)ccc3Cl)ccc2C1NC(=O)O[C@@H]1CN2CCC1CC2` (stereo partly drawn) [Example 232, (S)-quinuclidin-3-yl (7-(2-chloro-5-fluorophenyl)-3,3-dimethylchroman-4-yl)carbamate], the figures for the IC50 in test [1] and in test [2] were 0.41 nM and 0.3 nM, respectively.

As for `CC1(C)COc2cc(-c3ccc(F)cc3F)ccc2C1NC(=O)O[C@@H]1CN2CCC1CC2` (stereo partly drawn) [Example 233, (S)-quinuclidin-3-yl (7-(2,4-difluorophenyl)-3,3-dimethylchroman-4-yl)carbamate], the results for the IC50 in test [1] and in test [2] were 0.49 nM and 3 nM, respectively.

On to `CC1(C)COc2cc(-c3cc(F)ccc3F)ccc2C1NC(=O)O[C@@H]1CN2CCC1CC2` (stereo partly drawn) [Example 234, (S)-quinuclidin-3-yl (7-(2,5-difluorophenyl)-3,3-dimethylchroman-4-yl)carbamate], for which the values for the IC50 in test [1] and in test [2] were 0.4 nM and 1.1 nM, respectively.

Turning to `CC1(C)COc2cc(-c3cccc(Cl)c3Cl)ccc2C1NC(=O)O[C@@H]1CN2CCC1CC2` (stereo partly drawn) [Example 235, (S)-quinuclidin-3-yl (7-(2,3-dichlorophenyl)-3,3-dimethylchroman-4-yl)carbamate], the IC50 in test [1] stood at 0.75 nM; in test [2], 7.1 nM.

`CC1(C)COc2cc(-c3ccc(F)c(Cl)c3)ccc2C1NC(=O)O[C@@H]1CN2CCC1CC2` (stereo partly drawn) [Example 236, (S)-quinuclidin-3-yl (7-(3-chloro-4-fluorophenyl)-3,3-dimethylchroman-4-yl)carbamate]: the 50% inhibitory concentration (IC50) in test [1] was found to be 0.75 nM; in test [2], 3.6 nM.

For `CC1(C)COc2cc(-c3cccc(F)c3Cl)ccc2C1NC(=O)O[C@@H]1CN2CCC1CC2` (stereo partly drawn) [Example 237, (S)-quinuclidin-3-yl (7-(2-chloro-3-fluorophenyl)-3,3-dimethylchroman-4-yl)carbamate], the IC50 was found to be 0.63 nM in test [1] and 5.1 nM in test [2].

In the case of `CC1(C)COc2cc(-c3ccc(F)c(F)c3)ccc2C1NC(=O)O[C@@H]1CN2CCC1CC2` (stereo partly drawn) [Example 238, (S)-quinuclidin-3-yl (7-(3,4-difluorophenyl)-3,3-dimethylchroman-4-yl)carbamate], the IC50 in test [1] came to 0.47 nM; in test [2], 5.9 nM.

Regarding `CC1(C)COc2cc(-c3cccc(F)c3F)ccc2C1NC(=O)O[C@@H]1CN2CCC1CC2` (stereo partly drawn) [Example 239, (S)-quinuclidin-3-yl (7-(2,3-difluorophenyl)-3,3-dimethylchroman-4-yl)carbamate], the IC50 in test [1] is 0.47 nM; in test [2], 4.8 nM.

For `CC1(C)COc2cc(-c3cc(F)cc(F)c3)ccc2C1NC(=O)O[C@@H]1CN2CCC1CC2` (stereo partly drawn) [Example 240, (S)-quinuclidin-3-yl (7-(3,5-difluorophenyl)-3,3-dimethylchroman-4-yl)carbamate], the IC50 in test [1] stood at 0.92 nM; in test [2], 5 nM.
